Measured values as given in US20230355597A1, “COMPOUNDS, COMPOSITIONS, AND METHODS FOR THE TREATMENT AND PREVENTION OF AVIAN PATHOGENIC E. COLI (APEC)” (OHIO STATE INNOVATION FOUNDATION, priority 2018, published 2023).
Marks after values point to notes of the source that are not given here.

Columns and labels:
APEC O78 [1] = assay type: cell-based, avian pathogenic Escherichia coli (APEC); details: APEC O78, M63 media
APEC O1 = assay type: cell-based, avian pathogenic Escherichia coli (APEC); details: APEC O1, M63 media; MIC/MBC
APEC O2 = assay type: cell-based, avian pathogenic Escherichia coli (APEC); details: APEC O2, M63 media; MIC/MBC
APEC O8 = assay type: cell-based, avian pathogenic Escherichia coli (APEC); details: APEC O8, M63 media; MIC/MBC
APEC O15 = assay type: cell-based, avian pathogenic Escherichia coli (APEC); details: APEC O15, M63 media; MIC/MBC
APEC O18 = assay type: cell-based, avian pathogenic Escherichia coli (APEC); details: APEC O18, M63 media; MIC/MBC
APEC O35 = assay type: cell-based, avian pathogenic Escherichia coli (APEC); details: APEC O35, M63 media; MIC/MBC
APEC O115 = assay type: cell-based, avian pathogenic Escherichia coli (APEC); details: APEC O115, M63 media; MIC/MBC
APEC O109 = assay type: cell-based, avian pathogenic Escherichia coli (APEC); details: APEC O109, M63 media; MIC/MBC
APEC O78-53 = assay type: cell-based, avian pathogenic Escherichia coli (APEC); details: APEC O78-53, M63 media; MIC/MBC
APEC O1-63 = assay type: cell-based, avian pathogenic Escherichia coli (APEC); details: APEC O1-63, M63 media; MIC/MBC
APEC O2-211 = assay type: cell-based, avian pathogenic Escherichia coli (APEC); details: APEC O2-211, M63 media; MIC/MBC
[2] = system: biofilm embedded APEC O78; assay: MBEC High-throughput assay; assay type: cell-based, avian pathogenic Escherichia coli (APEC); details: biofilm embedded APEC O78; superscript = multiple of MIC (footnote)
Experimental: Effect against biofilm embedded APEC. The effect of cidal SMs against biofilm embedded APEC was determined using MBEC High-throughput (HTP) assay (Innovotech Inc., AB, Canada). Briefly, 150 µL of 0.05 OD600 adjusted APEC O78 culture was aliquoted into each well of the MBEC device containing polystyrene pegs and incubated at 37° C. for 36 h in LB media under stationary condition. […] The plate was incubated in the dark for 18 h at 37° C. with rotation at 110 rpm. The DMSO (1%) and M63 media were used as positive and negative controls, respectively. Following incubation, MIC of SMs in challenged plate was recorded. The SMs exposed pegs were then transferred to a new 96-well plate containing PBS and sonicated for 30 mins (Aquasonic ultrasonic cleaner, VWR) to disrupt the biofilm. […] Biofilm embedded APEC bacteria were enumerated and minimum biofilm eradication concentration (MBEC) of […] were determined. Two independent experiments were conducted.

APEC O78 [3] = assay: Confocal microscopy bacterial cytological profiling; assay type: cell-based, avian pathogenic Escherichia coli (APEC); details: 2X MBC
Experimental: Confocal and scanning electron microscopy. Confocal microscopy was used for bacterial cytological profiling (BCP) to identify the cellular pathways targeted by SMs as described previously. […] After incubation, treated cultures were centrifuged, washed, and resuspended in 100 μL PBS. […] Cultures were then centrifuged, washed, and resuspended in PBS to 1⁄10th volume of the original cultures.

APEC O78 [4] = assay: Loss of 260/280 nm absorbing materials assay; assay type: cell-based, avian pathogenic Escherichia coli (APEC); details: 2X MBC, 1 h, *P<0.05 vs DMSO
[5] = system: intracellular APEC O78 in Caco-2 cells; assay: Intracellular survival assay (cidal SMs); details: O78, Caco-2, 6 h treatment; superscript = multiple of MIC
[6] = system: intracellular APEC O78 in HD11 cells; assay: Intracellular survival assay (cidal SMs); details: O78, HD11, 6 h treatment; superscript = multiple of MIC
[7] = system: intracellular APEC O78 in THP-1 cells; assay: Intracellular survival assay (cidal SMs); details: O78, THP-1, 6 h treatment; superscript = multiple of MIC
[8] = system: intracellular APEC O2 in Caco-2 cells; assay: Intracellular survival assay (cidal SMs); details: O2, Caco-2, 6 h treatment; superscript = multiple of MIC
[9] = system: intracellular APEC O2 in HD11 cells; assay: Intracellular survival assay (cidal SMs); details: O2, HD11, 6 h treatment; superscript = multiple of MIC
[10] = system: intracellular APEC O2 in THP-1 cells; assay: Intracellular survival assay (cidal SMs); details: O2, THP-1, 6 h treatment; superscript = multiple of MIC
[11] = system: intracellular APEC O1 in Caco-2 cells; assay: Intracellular survival assay (cidal SMs); details: O1, Caco-2, 6 h treatment; superscript = multiple of MIC
[12] = system: intracellular APEC O1 in HD11 cells; assay: Intracellular survival assay (cidal SMs); details: O1, HD11, 6 h treatment; superscript = multiple of MIC
[13] = system: intracellular APEC O1 in THP-1 cells; assay: Intracellular survival assay (cidal SMs); details: O1, THP-1, 6 h treatment; superscript = multiple of MIC
Rif^r APEC O78 = assay: In vivo efficacy of growth inhibitors in APEC infected broiler chickens
[14] = system: intracellular APEC O78, O2, and O1 in infected Caco-2, HD11, and THP1 cells; assay: Intracellular survival assay (cidal SMs), summary over serotypes and cells; details: overall ranking

Molecule CCN1C(=Cc2ccc3ccccc3[n+]2CC)C=Cc2ccccc21.[Cl-] [SM9] has an MIC (APEC O78 [1]; MIC/MBC) of 25 µM, an MBC (APEC O78 [1]; cell prints MIC/MBC) of 50 µM and an MBC (APEC O1) of 50 µM. For the same molecule, the MIC (APEC O1) was 25 µM, the MBC (APEC O2) was 50 µM and the MIC (APEC O2) was 25 µM. For the same molecule, the MBC (APEC O8) was 50 µM, the MIC (APEC O8) was 25 µM and the MBC (APEC O15) was 100 µM. It also gave an MIC (APEC O15) of 25 µM, an MBC (APEC O18) of 100 µM and an MIC (APEC O18) of 25 µM. For the same molecule, the MBC (APEC O35) was 50 µM, the MIC (APEC O35) was 25 µM and the MBC (APEC O115) was 50 µM. It also gave an MIC (APEC O115) of 25 µM, an MBC (APEC O109) of 50 µM and an MIC (APEC O109) of 25 µM. For the same molecule, the MBC (APEC O78-53) was 25 µM, the MIC (APEC O78-53) was 25 µM and the MBC (APEC O1-63) was 100 µM. For the same molecule, the MIC (APEC O1-63) was 50 µM, the MBC (APEC O2-211) was 25 µM and the MIC (APEC O2-211) was 25 µM. For the same molecule, the MBEC [2] was 50^b µM, the “cytological profile (confocal, FM4-64 / SYTO-9)” value (APEC O78 [3]) was “PG synthesis inhibitors” and the “Absorbance 260” value (APEC O78 [4]; 260 nm absorbing material in supernatant) was 3.99*. The “Absorbance 280” value (APEC O78 [4]; 280 nm absorbing material in supernatant) was 2.78*, the “SMs intracellular APEC clearance concentration” value [5] was 50^b µM and the “SMs intracellular APEC clearance concentration” value [6] was 100^c µM. For the same molecule, the “SMs intracellular APEC clearance concentration” value [7] was 50^b µM, the “SMs intracellular APEC clearance concentration” value [8] was 100^c µM and the “SMs intracellular APEC clearance concentration” value [9] was 100^c µM. For the same molecule, the “SMs intracellular APEC clearance concentration” value [10] was 50^b µM, the “SMs intracellular APEC clearance concentration” value [11] was 100^c µM and the “SMs intracellular APEC clearance concentration” value [12] was 100^c µM. The “SMs intracellular APEC clearance concentration” value [13] was 50^b µM, the “reduction of average APEC load in internal organs” value (Rif^r APEC O78; average of liver, heart, lung and kidney, vs untreated control) was “either exacerbated or did not reduce” and the “reduction of APEC induced mortality” value (Rif^r APEC O78; oral gavage twice a day, 5 days, untreated mortality (58.34%) normalized to 100%) was 42.86%. For the same molecule, the “reduction of APEC lesions severity (%), Air-sacs (airsacculitis)” value (Rif^r APEC O78; untreated control = 100%) was -88.2%, the “reduction of APEC lesions severity (%), Heart (pericarditis)” value (Rif^r APEC O78; untreated control = 100%) was -60% and the “reduction of APEC lesions severity (%), Liver (perihepatitis)” value (Rif^r APEC O78; untreated control = 100%) was -50%. The “reduction of APEC lesions severity (%), Lung (lung congestion)” value (Rif^r APEC O78; untreated control = 100%) was -16.7%, the “reduction of APEC load, Heart” value (Rif^r APEC O78; vs untreated control) was -0.5 log CFU/g of tissues and the “reduction of APEC load, Kidney” value (Rif^r APEC O78; vs untreated control) was -0.2 log CFU/g of tissues. The “reduction of APEC load, Liver” value (Rif^r APEC O78; vs untreated control) was -0.1 log CFU/g of tissues, the “reduction of APEC load, Lung” value (Rif^r APEC O78; vs untreated control) was -0.9 log CFU/g of tissues and the “Body weight gain (BWG)” value (Rif^r APEC O78; weight of live chickens before necropsy minus weight before treatment) was 214.93±31.88. For the same molecule, the “effectiveness in clearing intracellular APEC serotypes in all tested cells” value [14] was “most effective”.
